Measurements from the supplement of paper PMC5844555.

What was measured:
Assay in all cases: 3' UTR reporter interaction score (median-centred robust z-score of log2 firefly/Renilla activity); higher = less repression of the 3' UTR reporter
Conditions in all cases: HEK293T; 48 h
PHF6 = tested on: PHF6
Procedure, shortened: (§1)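 A firefly luc2P reporter carrying the gene's 3' UTR (100 ng), Renilla pRL-TK control (20 ng) and miRNA mimic (2.5 pmol) were co-transfected with DharmaFECT Duo into HEK293T cells plated at 10,000/well in 96-well plates. Luciferase activities were read 48 h post-transfection. The interaction score is the log firefly/Renilla ratio as a per-plate robust z-score from median and median absolute deviation, median-centred per miRNA, and more negative indicates interaction. Values are averages of at least two independent screens.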

PHOX2B = tested on: PHOX2B
Procedure, shortened: as §1

FBXW7 = tested on: FBXW7
Procedure, shortened: as §1

RB1 = tested on: RB1
Procedure, shortened: as §1

MYC = tested on: MYC
Procedure, shortened: as §1

MYT1L = tested on: MYT1L
Procedure, shortened: as §1

MYB = tested on: MYB
Procedure, shortened: as §1

NOTCH1 = tested on: NOTCH1
Procedure, shortened: as §1

TP53 = tested on: TP53
Procedure, shortened: as §1

EZH2 = tested on: EZH2
Procedure, shortened: as §1

HRAS = tested on: HRAS
Procedure, shortened: as §1

MYCN = tested on: MYCN
Procedure, shortened: as §1

ZEB2 = tested on: ZEB2
Procedure, shortened: as §1

BRCA2 = tested on: BRCA2
Procedure, shortened: as §1

Row | Sequence | 3' UTR reporter interaction score (PHF6) | 3' UTR reporter interaction score (PHOX2B) | 3' UTR reporter interaction score (FBXW7) | 3' UTR reporter interaction score (RB1) | 3' UTR reporter interaction score (MYC) | 3' UTR reporter interaction score (MYT1L) | 3' UTR reporter interaction score (MYB) | 3' UTR reporter interaction score (NOTCH1) | 3' UTR reporter interaction score (TP53) | 3' UTR reporter interaction score (EZH2) | 3' UTR reporter interaction score (HRAS) | 3' UTR reporter interaction score (MYCN) | 3' UTR reporter interaction score (ZEB2) | 3' UTR reporter interaction score (BRCA2)
1 | UUGGUCCCCUUCAACCAGCUA | -1.46 | -0.834 | 1.01 | -0.167 | 0.62 | 0.425 | -0.0299 | -0.864 | -0.692 | 1.2 | 1.24 | 0.0097 | -0.0455 | -0.159
2 | UUGGUCCCCUUCAACCAGCUGU | -1.13 | -0.898 | 1 | -0.063 | 0.174 | 0.5 | 0.254 | -0.968 | -1.45 | 1.28 | 1.24 | 0.117 | -0.135 | 0.152
3 | UUGUACAUGGUAGGCUUUCAUU | -1.11 | 0.723 | -0.171 | 0.635 | 1.21 | -0.141 | 1.15 | 0.647 | -0.89 | 0.0583 | 0.289 | 1.27 | -1.84 | -0.0352
4 | UUGUGCUUGAUCUAACCAUGU | 0.117 | -1.73 | 0.164 | 0.758 | 0.0929 | -0.134 | 0.205 | 0.182 | -0.638 | 0.222 | -0.276 | -0.328 | -0.746 | 0.391
5 | UUUAACAUGGGGGUACCUGCUG | 0.182 | -1.08 | 0.198 | 0.395 | -0.0461 | -0.244 | -1.1 | -0.514 | -0.238 | 0.537 | 0.621 | 0.0587 | -0.448 | 1.26
6 | UUUAGGAUAAGCUUGACUUUUG | -0.597 | -0.958 | 1.12 | -0.349 | -0.602 | 0.523 | 0.0477 | -0.42 | 0.0255 | 0.299 | -0.108 | -0.873 | -2.69 | 0.711
7 | UUUCCAUAGGUGAUGAGUCAC | -0.367 | -0.505 | -0.836 | 0.93 | 0.823 | -0.218 | 1.55 | -0.326 | -0.699 | -3.48 | 0.654 | 1.24 | -0.252 | -0.419
8 | UUUCCUAUGCAUAUACUUCUUU | -0.444 | -0.604 | 0.0806 | 0.265 | 0.151 | 1.98 | 0.476 | -2.15 | -0.504 | -0.62 | -0.802 | 0.517 | 0.911 | 0.202
9 | UUUGGCAAUGGUAGAACUCACA | -0.697 | 0.438 | -2.86 | 0.469 | -0.026 | 0.203 | -1.17 | -0.441 | 0.0472 | 0.322 | -0.139 | -0.0764 | 0.837 | -0.0444
10 | UUUGUUCGUUCGGCUCGCGUGA | 1.7 | 0.0504 | -0.0777 | -0.809 | 0.135 | -0.751 | -0.574 | 0.323 | 0.275 | 0.52 | -0.635 | -0.313 | 0.164 | 1.05
